The series can be described thus: Raman spectroscopic measurement of solute concentration in multi-component solvent mixtures. Particulars: prepared at 10 mg/mL. The format is physicochemical.

Data on two compounds can be found in patent US7521254B2, “Quantitative measurements of concentration and solubility using Raman spectroscopy” (Transform Pharmaceuticals, Inc., priority 2004, dated 2009).

SMILES strings stand for the structures.

Experimental: FIGS. 1B and 1C depict calibration spectra for a two-component system (component A and component B) in which the solute from FIG. 1A is homogeneously distributed. FIG. 1B represents a calibration spectrum for single-component A while FIG. 1C represents a calibration spectrum for single-component B. The concentration of both single-component systems is 15 mg/mL. FIG. 1D depicts a Raman spectrum of the two-component system (A and B) with an unknown solute concentration. The ratio of A:B is 1:1 in the unknown sample. FIG. 1E is a representation of the Raman intensities at a particular frequency (v1) in both calibration spectra. A dotted line has been drawn between the calibration intensities and illustrates the expected Raman intensities at frequency v1 due to the solute molecule in mixtures of both components. […] In view of FIG. 1E, the ratio of components in the unknown sample can be used to determine the concentration of solute. […] A solute concentration above 15 mg/mL results in a Raman intensity greater than (IA+IB)/2 while a solute concentration below 15 mg/mL results in a Raman intensity less than (IA+IB)/2. Due to a directly proportional and linear relationship between Raman scattering intensity and concentration, values both above and below 15 mg/mL are easily calculated based on the measured Raman intensity of the unknown (multi-component) sample.
In another embodiment, automated software can be programmed to analyze the data. First, the software identifies the spectral peaks and intensities that are unique to the solute molecule by direct comparison with a solvent only (signature) spectrum. The various single-component (calibration) Raman spectra are then accessed and a calibration matrix is configured and saved from these single-component data. […] The concentration of solute in the multi-component system is calculated using a weighted average determination. For instance, the concentration (C) of a solute in a multi-component system can be calculated by using equation (1), C=a1c1+a2c2+a3c3+ . . . […]

On to `CC(=O)Nc1ccc(O)cc1` [Acetaminophen], for which the “mean value for the concentration” value by setting is: (1:1:1 ternary mixtures by volume (Table II), RSD 6.7 percent) 9.48 mg/mL; (1:3 binary mixtures of excipients by volume (Table I), two trials, RSD 9.6 percent) 10.18 mg/mL.

As to `CC(=O)Oc1ccccc1C(=O)O` [Acetylsalicylic acid], under “1:1 binary mixtures by volume (Table IV), RSD 9.7 percent”, the “mean value for the concentration” value is listed as 10.19 mg/mL.
